Our source for the MIC values is patent publication US9409905B2, “Antibacterial compounds and methods for use” (PTC THERAPEUTICS, INC., priority 2011, dated 2016).

Converted amounts (≈) assume the structure as drawn.

Assay [1] deals with Pseudomonas aeruginosa (P. aeruginosa) 27853. In words: Antibacterial activity, MIC (Table 5). Particulars: P. aeruginosa 27853, read-out: MIC, 27853. It is filed as cell-based. A digest of the protocol:
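Microbroth dilution; MIC (μg/mL) = lowest concentration with no macroscopically visible growth.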

The subject of assay [2] is Moraxella catarrhalis (M. catarrhalis) 25238. In words: Antibacterial activity, MIC (Table 7). It counts as cell-based. A digest of the protocol:
(§1)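 Values are minimum inhibitory concentrations in μg/mL, determined by microbroth dilution as the lowest concentration with no macroscopically visible growth.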

Assay [3] concerns Acinetobacter baumannii (A. baumannii) BAA747. In words: Antibacterial activity, MIC (Table 4). It is filed as cell-based. The following applies: A. baumannii BAA747, read-out: MIC, BAA747. Summed up: (§2)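 MIC in μg/mL by microbroth dilution, scored as the lowest level that suppresses visible growth.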
For assay [4], the system named is Klebsiella pneumoniae (K. pneumoniae) 35657. Description: Antibacterial activity, MIC (Table 4). It counts as cell-based. The following applies: K. pneumoniae 35657, read-out: MIC, 35657. A digest of the protocol:
as §2

The test system of a further assay is E. coli LZ3111. Description: Antibacterial activity, MIC, quinolone resistant strain (Table 2). The following applies: Escherichia coli, LZ3111, read-out: MIC LZ3111. It is filed as cell-based. A digest of the protocol: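 Broth microdilution. Read-out: MIC in μg/mL, taken as lowest concentration with no macroscopically visible growth.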
Assay [5] has as its system Neisseria meningitidis (N. meningitidis) 13090. In words: Antibacterial activity, MIC (Table 8). It counts as cell-based. A digest of the protocol: as §1
Assay [6] concerns Staphylococcus aureus (S. aureus) 29213. Description: Antibacterial activity, microbroth dilution MIC (Table 1). It is filed as cell-based. Particulars: microbroth dilution, Gram-positive S. aureus 29213, read-out: MIC, 29213. A digest of the protocol: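 Each strain is exposed to test compound in a microbroth dilution series; visible growth is scored macroscopically, and the lowest growth-free concentration is recorded as MIC in μg/mL.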
(In general: Broth dilution looks for growth in wells or tubes with falling amounts of substance.)

The subject of assay [7] is Escherichia coli (E. coli) BAS849. The assay is described as above. It counts as cell-based. The following applies: microbroth dilution, super sensitive Gram-negative E. coli BAS849, read-out: MIC, BAS849. A digest of the protocol: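 Read-out: visual absence of growth. The lowest concentration meeting this gives the MIC, expressed in μg/mL, with microbroth dilution as the method.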

A further assay concerns E. coli ELZ4251. Description: Antibacterial activity, MIC, multi-drug resistant clinical isolate (Table 3). It counts as cell-based. The following applies: Escherichia coli. A digest of the protocol: (§3)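 MIC (μg/mL) read as lowest concentration with no macroscopically visible growth, determined by microbroth dilution.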
The subject of the next assay is E. coli ELZ4000. The assay is described as above. It is filed as cell-based. The following applies: Escherichia coli, ELZ4000, read-out: MIC ELZ4000. A digest of the protocol:
as §3

Another assay deals with E. coli 25922. Description: Antibacterial activity, microbroth dilution MIC (Table 1). It counts as cell-based, Escherichia coli. Particulars: Escherichia coli; microbroth dilution; control Gram-negative E. coli 25922 strain; read-out: MIC, 25922. Summed up:
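Microbroth dilution was used. MIC, in μg/mL, is the lowest drug concentration preventing macroscopically visible growth under the test conditions.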

Another assay relates to A. baumannii MXX2240. Description: Antibacterial activity, MIC, resistant strain (Table 4). It counts as cell-based. The following applies: Acinetobacter baumannii, MXX2240; resistant A. baumannii MMX2240, multi-drug resistant clinical isolate; read-out: MIC, MMX2240. A digest of the protocol:
as §2

The next assay has as its system K. pneumoniae MXX1232. The description is as above. It counts as cell-based. The following applies: Klebsiella pneumoniae, MXX1232; resistant K. pneumoniae MMX1232, multi-drug resistant clinical isolate; read-out: MIC, MMX1232. Summed up:
as §2

Assay [8] deals with Haemophilus influenzae (H. influenzae) 49247. In words: Antibacterial activity, MIC (Table 6). It counts as cell-based. Summed up:
as §1

As for `CCc1c(-c2ccc3c(c2)cc(CNCc2ccc(OC)cc2)n3C)[nH]c(=O)c(C(=O)O)c1O` [Cpd 291, 5-ethyl-4-hydroxy-6-(2-((4-methoxybenzylamino)methyl)-1-methyl-1H-indol-5-yl)-2-oxo-1,2-dihydropyridine-3-carboxylic acid], the MIC in assay [1] was 12.5 to 150 µg/mL (≈ 27.1 to 325 µM); in assay [2], under 1 µg/mL; in [3] it was 1 to 3.5 µg/mL (≈ 2.17 to 7.58 µM); in [4], 3.5 to 12.5 µg/mL (≈ 7.58 to 27.1 µM); with E. coli LZ3111, 1 to 3.5 µg/mL (≈ 2.17 to 7.58 µM); in assay [5], under 1 µg/mL. For the same compound, the MIC in [6] is 3.5 to 12.5 µg/mL (≈ 7.58 to 27.1 µM); in [7], under 1 µg/mL; against E. coli ELZ4251, 12.5 to 150 µg/mL (≈ 27.1 to 325 µM); in the assay with E. coli ELZ4000, 12.5 to 150 µg/mL (≈ 27.1 to 325 µM); in the assay with E. coli 25922, under 1 µg/mL; in the assay with A. baumannii MXX2240 it was 1 to 3.5 µg/mL (≈ 2.17 to 7.58 µM). In addition, the MIC in the assay on K. pneumoniae MXX1232 was 12.5 to 150 µg/mL (≈ 27.1 to 325 µM); in assay [8], under 1 µg/mL.
On to `CCc1c(-c2ccc3c(c2)cc2n3CCNC2)[nH]c(=O)c(C(=O)O)c1O` [Cpd 305, 5-ethyl-4-hydroxy-2-oxo-6-(1,2,3,4-tetrahydropyrazino[1,2-a]indol-8-yl)-1,2-dihydropyridine-3-carboxylic acid], for which the MIC in [1] is 3.5 to 12.5 µg/mL (≈ 9.9 to 35.4 µM); in assay [2] it was under 1 µg/mL; in assay [3] it was 1 to 3.5 µg/mL (≈ 2.83 to 9.9 µM); in assay [4], under 1 µg/mL; in the assay with E. coli LZ3111, 3.5 to 12.5 µg/mL (≈ 9.9 to 35.4 µM); in [5], under 1 µg/mL. The MIC in [6] is 3.5 to 12.5 µg/mL (≈ 9.9 to 35.4 µM); in assay [7] it was under 1 µg/mL; in the assay with E. coli ELZ4251, 3.5 to 12.5 µg/mL (≈ 9.9 to 35.4 µM); in the assay on E. coli ELZ4000, 12.5 to 150 µg/mL (≈ 35.4 to 424 µM); in the assay on E. coli 25922 it was under 1 µg/mL; in the assay with A. baumannii MXX2240 it was 12.5 to 150 µg/mL (≈ 35.4 to 424 µM). Besides, the results for the MIC (in the assay on K. pneumoniae MXX1232; in [8]) were 12.5 to 150 µg/mL (≈ 35.4 to 424 µM) and under 1 µg/mL, respectively.
In the case of `Cc1c(-c2ccc3c(c2)cc(CN(C)C)n3C)[nH]c(=O)c(C(=O)O)c1O` [Cpd 314, 6-(2-((dimethylamino)methyl)-1-methyl-1H-indol-5-yl)-4-hydroxy-5-methyl-2-oxo-1,2-dihydropyridine-3-carboxylic acid], the MIC in assay [1] was 12.5 to 150 µg/mL (≈ 35.2 to 422 µM); in assay [2], 3.5 to 12.5 µg/mL (≈ 9.85 to 35.2 µM); in assay [3], 3.5 to 12.5 µg/mL (≈ 9.85 to 35.2 µM); in [4] it was 3.5 to 12.5 µg/mL (≈ 9.85 to 35.2 µM); with E. coli LZ3111, 1 to 3.5 µg/mL (≈ 2.81 to 9.85 µM); in assay [5] it was under 1 µg/mL. Moreover, the MIC in [6] is 12.5 to 150 µg/mL (≈ 35.2 to 422 µM); in [7], under 1 µg/mL; with E. coli ELZ4251 it was 1 to 3.5 µg/mL (≈ 2.81 to 9.85 µM); in the assay with E. coli ELZ4000, 3.5 to 12.5 µg/mL (≈ 9.85 to 35.2 µM); in the assay with E. coli 25922, 3.5 to 12.5 µg/mL (≈ 9.85 to 35.2 µM); in the assay on A. baumannii MXX2240 it was 1 to 3.5 µg/mL (≈ 2.81 to 9.85 µM). Further, the MIC with K. pneumoniae MXX1232 lay within 12.5 to 150 µg/mL (≈ 35.2 to 422 µM); in [8], 1 to 3.5 µg/mL (≈ 2.81 to 9.85 µM).
`Cc1c(-c2ccc3c(c2)cc(CNCC2CC2)n3C)[nH]c(=O)c(C(=O)O)c1O` [Cpd 315, 6-(2-((cyclopropylmethylamino)methyl)-1-methyl-1H-indol-5-yl)-4-hydroxy-5-methyl-2-oxo-1,2-dihydropyridine-3-carboxylic acid]: the MIC in [1] was 12.5 to 150 µg/mL (≈ 32.8 to 393 µM); in [2], 3.5 to 12.5 µg/mL (≈ 9.18 to 32.8 µM); in [3] it was 1 to 3.5 µg/mL (≈ 2.62 to 9.18 µM); in assay [4] it was 1 to 3.5 µg/mL (≈ 2.62 to 9.18 µM); with E. coli LZ3111, under 1 µg/mL; in assay [5] it was under 1 µg/mL. The MIC in assay [6] is 12.5 to 150 µg/mL (≈ 32.8 to 393 µM); in assay [7], under 1 µg/mL; against E. coli ELZ4251, under 1 µg/mL; in the assay with E. coli ELZ4000, 1 to 3.5 µg/mL (≈ 2.62 to 9.18 µM); in the assay with E. coli 25922 it was 1 to 3.5 µg/mL (≈ 2.62 to 9.18 µM); with A. baumannii MXX2240, 1 to 3.5 µg/mL (≈ 2.62 to 9.18 µM). Besides, the values for the MIC (in the assay on K. pneumoniae MXX1232; in assay [8]) were 12.5 to 150 µg/mL (≈ 32.8 to 393 µM) and 1 to 3.5 µg/mL (≈ 2.62 to 9.18 µM), respectively.
As for `Cc1c(-c2ccc3c(c2)cc(CN2CCC2)n3C)[nH]c(=O)c(C(=O)O)c1O` [Cpd 316, 6-(2-(azetidin-1-ylmethyl)-1-methyl-1H-indol-5-yl)-4-hydroxy-5-methyl-2-oxo-1,2-dihydropyridine-3-carboxylic acid], the MIC in assay [1] is 12.5 to 150 µg/mL (≈ 34 to 408 µM); in [2] it was 3.5 to 12.5 µg/mL (≈ 9.53 to 34 µM); in assay [3] it was 3.5 to 12.5 µg/mL (≈ 9.53 to 34 µM); in [4], 3.5 to 12.5 µg/mL (≈ 9.53 to 34 µM); with E. coli LZ3111 it was under 1 µg/mL; in assay [5], 12.5 to 150 µg/mL (≈ 34 to 408 µM). Moreover, the MIC was 12.5 to 150 µg/mL (≈ 34 to 408 µM) in assay [6]; under 1 µg/mL in assay [7]; 3.5 to 12.5 µg/mL (≈ 9.53 to 34 µM) against E. coli ELZ4251; 3.5 to 12.5 µg/mL (≈ 9.53 to 34 µM) with E. coli ELZ4000; 1 to 3.5 µg/mL (≈ 2.72 to 9.53 µM) with E. coli 25922; 1 to 3.5 µg/mL (≈ 2.72 to 9.53 µM) in the assay with A. baumannii MXX2240. Besides, the MIC in the assay on K. pneumoniae MXX1232 was in the range of 12.5 to 150 µg/mL (≈ 34 to 408 µM); in assay [8], 1 to 3.5 µg/mL (≈ 2.72 to 9.53 µM).
